Results published in patent US20250320202A1, “PRMT5 INHIBITOR, PREPARATION METHOD THEREFOR, AND PHARMACEUTICAL USE THEREOF” (Abbisko Therapeutics Co., Ltd., priority 2022, published 2025).

Experiments:
[1] = Pharmacokinetic assay in mice, blood-brain barrier penetration analysis (Kp); type: in vivo; settings: male, mouse, ICR mice, PO single dose 10 mg/kg, brain vs plasma, read-out: Kp (4 h after administration)
Method: The purpose of this trial is to study the pharmacokinetic behavior of some compounds of the present invention, and the administration method is: ICR mice were orally administered (PO) a single dose, at a dose of 10 mg/kg.
ICR mice male N=3 original source: Shanghai Sippr-Bk Lab Animal Co., Ltd.
The compounds were weighed and dissolved in 20% PG+10% Solutol HS15+70% pH 3 citrate buffer, respectively, shaken well and sonicated to prepare colorless clear solutions. 9 mice were administered orally after an overnight fast. The dose was 10 mg/kg.
• 1) About 90 μL blood was collected via the submandibular vein per time point, heparin sodium anticoagulant was added, the sample was placed on ice after collection, and plasma was centrifuged within 1 hour (centrifugation conditions: 8,000 rpm, 6 minutes, 2-8° C.). • 2) The blood collection time points were 1, 4, and 24 h. The samples were stored in a refrigerator at −20° C. • 3) The plasma sample was 40 μL, 160 μL of ice-cold acetonitrile containing internal standard was added, vortexed for 3 minutes, and centrifuged at 11,000 rpm for 5 minutes. • 4) 100 μL of the supernatant was taken and added to 100 μL of water, 5 μL of the sample was taken and injected into LC/MS/MS for analysis.
AUC or concentration in brain or plasma measured by using the above method was used to calculate the Kp. Kp refers to the relationship between drug concentrations in brain and blood and is used to evaluate the ability of a drug to penetrate the blood-brain barrier. Post-dose Kp was calculated by the following formula: […]

[2] = test system: HCT116 MTAP wild-type cells; assay: Human colon cancer HCT116 cell proliferation inhibition test (CellTiter-Glo, 6 days), MTAP wild-type cells; type: cell-based; settings: HCT-116, 144 h
Method: (§1) 1. HCT116 MTAP knockout and MTAP wild-type cells were plated in 96-well flat bottom plates, and cultured overnight with McCoy's 5A medium containing 10% fetal bovine serum+1% penicillin-streptomycin at 37° C. and 5% CO2.
(§2) 2. On the next day, the compound was dissolved with DMSO, diluted with DMSO and medium successively and transferred to the cell plate. The final concentration of the compound was 10 μM, the compound was diluted 4 times, with 9 concentration gradients, and DMSO control was added.
(§3) 3. Cells that have not been treated with the compound were removed. CellTiter-Glo Luminescent Cell Viability Assay (Promega) was used to detect cell viability, the operation was performed with reference to the package insert of the kit, and then the cell plate was placed on EnVision Multilabel Reader to detect the cold light signal.
(§4) 4. Meanwhile, the cell plate treated with the compound was cultured at 37° C. and 5% CO2 for 6 consecutive days.
(§5) 5. Then, CellTiter-Glo was also used to detect cell viability.
(§6) 6. Finally, the four-parameter dose-response curve module of GraphPad Prism v 9.2.0 software was used to plot the dose-response curve and calculate the IC50 for proliferation inhibition (unit: nM).

[3] = test system: HCT116 MTAP knockout cells; assay: Human colon cancer HCT116 cell proliferation inhibition test (CellTiter-Glo, 6 days), MTAP knockout cells; type: cell-based; settings: HCT-116, 144 h
Method: as §1, §2, §3, §4, §5, §6

SMILES | Kp at 4 h [1] | IC50 [2] | IC50 [3]
Nc1nc2cc(F)c(C(=O)N(CC3CC3)[C@@H]3COc4cc(C(F)(F)F)ccc43)cc2c2cnccc12 [Example 234, (S)-5-amino-N-(cyclopropylmethyl)-8-fluoro-N-(6-(trifluoromethyl)-2,3-dihydrobenzofuran-3-yl)benzo[c][2,6]naphthyridin-9-carboxamide] | 0.7 | 224 nM | 20 nM
Nc1nc2ccc(C(=O)N(CC3CC3)[C@@H]3COc4cc(C(F)(F)F)ccc43)cc2c2cnccc12 [Example 192, (S)-5-amino-N-(cyclopropylmethyl)-N-(6-(trifluoromethyl)-2,3-dihydrobenzofuran-3-yl)benzo[c][2,6]naphthyridin-9-carboxamide] | 0.4 | 79 nM | 3.6 nM
Nc1nc2ccc(C(=O)N(CC3CC3)C3CCc4cc(C(F)(F)F)ccc43)cc2c2cnccc12 (centres unmarked) [Example 108, 5-amino-N-(cyclopropylmethyl)-N-(5-(trifluoromethyl)-2,3-dihydro-1H-inden-1-yl)benzo[c][2,6]naphthyridin-9-carboxamide] |  | 1420 nM | 36 nM
C[C@H](c1ncccn1)N(C(=O)c1cc2c(cc1F)nc(N)c1cnn(C)c12)[C@@H]1CCc2cc(C(F)(F)F)ccc21 [Example 221, 4-amino-7-fluoro-1-methyl-N-((R)-1-(pyrimidin-2-yl)ethyl)-N-((R)-5-(trifluoromethyl)-2,3-dihydro-1H-inden-1-yl)-1H-pyrazolo[4,3-c]quinolin-8-carboxamide] |  | 1340 nM | 88 nM
Nc1nc2cc(Cl)c(C(=O)N(CC3CC3)[C@@H]3COc4cc(C(F)(F)F)ccc43)cc2c2cnccc12 [Example 235, (S)-5-amino-8-chloro-N-(cyclopropylmethyl)-N-(6-(trifluoromethyl)-2,3-dihydrobenzofuran-3-yl)benzo[c][2,6]naphthyridin-9-carboxamide] | 0.7 | 176 nM | 21 nM
C[C@H]1OCc2c1c(N)nc1cc(F)c(C(=O)N(c3cnn(C)c3)[C@@H]3COc4nc(C(F)(F)F)ccc43)cc21 [Example 208, (R)-4-amino-7-fluoro-3-methyl-N-(1-methyl-1H-pyrazol-4-yl)-N-((S)-6-(trifluoromethyl)-2,3-dihydrofuro[2,3-b]pyridin-3-yl)-1,3-dihydrofuro[3,4-c]quinolin-8-carboxamide] |  | 130 nM | 4 nM
Nc1nc2ccc(C(=O)N(C3CC3)C3CCc4nc(C(F)(F)F)ccc43)cc2c2cnccc12 (centres unmarked) [Example 225, 5-amino-N-cyclopropyl-N-(2-(trifluoromethyl)-6,7-dihydro-5H-cyclopenta[b]pyridin-5-yl)benzo[c][2,6]naphthyridin-9-carboxamide] |  | 9470 nM | 286 nM
CN(C(=O)c1ccc2nc(N)c3ccncc3c2c1)[C@@H]1CCc2cc(C(F)(F)F)ccc21 [Example 227, (R)-5-amino-N-methyl-N-(5-(trifluoromethyl)-2,3-dihydro-1H-inden-1-yl)benzo[c][2,6]naphthyridin-9-carboxamide] |  | 1070 nM | 85 nM
Nc1nc2ccc(C(=O)N(CC3CC3)[C@@H]3CCc4cc(C(F)(F)F)ccc43)cc2c2cnccc12 [Example 219, (R)-5-amino-N-(cyclopropylmethyl)-N-(5-(trifluoromethyl)-2,3-dihydro-1H-inden-1-yl)benzo[c][2,6]naphthyridin-9-carboxamide] | 0.5 | 1560 nM | 35 nM
Cc1cc2nc(N)c3ccncc3c2cc1C(=O)N(CC1CC1)[C@@H]1COc2cc(C(F)(F)F)ccc21 [Example 233, (S)-5-amino-N-(cyclopropylmethyl)-8-methyl-N-(6-(trifluoromethyl)-2,3-dihydrobenzofuran-3-yl)benzo[c][2,6]naphthyridin-9-carboxamide] | 0.4 | 102 nM | 33 nM
Cn1cc(N(C(=O)c2cc3c(cc2F)nc(N)c2cnn(C)c23)C2COc3cc(C(F)(F)F)ccc32)cn1 (centres unmarked) [Example 21, 4-amino-7-fluoro-1-methyl-N-(1-methyl-1H-pyrazol-4-yl)-N-(6-(trifluoromethyl)-2,3-dihydrobenzofuran-3-yl)-1H-pyrazolo[4,3-c]quinolin-8-carboxamide] |  | 79 nM | 0.8 nM
Cn1cc(N(C(=O)c2ccc3nc(N)c4c(cnn4C)c3c2)C2COc3cc(C(F)(F)F)ccc32)cn1 (centres unmarked) [Example 165, 4-amino-3-methyl-N-(1-methyl-1H-pyrazol-4-yl)-N-(6-(trifluoromethyl)-2,3-dihydrobenzofuran-3-yl)-3H-pyrazolo[3,4-c]quinolin-8-carboxamide] |  | 2510 nM | 35 nM
Cn1cc(N(C(=O)c2cc3c(cc2F)nc(N)c2cnn(C)c23)[C@@H]2COc3cc(C(F)(F)F)ccc32)cn1 [Example 205, (S)-4-amino-7-fluoro-1-methyl-N-(1-methyl-1H-pyrazol-4-yl)-N-(6-(trifluoromethyl)-2,3-dihydrobenzofuran-3-yl)-1H-pyrazolo[4,3-c]quinolin-8-carboxamide] |  | 64 nM | 0.8 nM
Nc1nc2ccc(C(=O)N(CC3CC3)C3COc4cc(C(F)(F)F)ccc43)cc2c2cnccc12 (centres unmarked) [Example 109, 5-amino-N-(cyclopropylmethyl)-N-(6-(trifluoromethyl)-2,3-dihydrobenzofuran-3-yl)benzo[c][2,6]naphthyridin-9-carboxamide] |  | 824 nM | 15 nM
Cn1cc(N(C(=O)c2ccc3nc(N)c4ccncc4c3c2)C2COc3cc(C(F)(F)F)ccc32)cn1 (centres unmarked) [Example 133, 5-amino-N-(1-methyl-1H-pyrazol-4-yl)-N-(6-(trifluoromethyl)-2,3-dihydrobenzofuran-3-yl)benzo[c][2,6]naphthyridin-9-carboxamide] |  | 708 nM | 8 nM
Cn1cc(N(C(=O)c2ccc3nc(N)c4ccncc4c3c2)C2CCc3cc(C(F)(F)F)ccc32)cn1 (centres unmarked) [Example 132, 5-amino-N-(1-methyl-1H-pyrazol-4-yl)-N-(5-(trifluoromethyl)-2,3-dihydro-1H-inden-1-yl)benzo[c][2,6]naphthyridin-9-carboxamide] |  | 1950 nM | 44 nM
Nc1nc2cc(Cl)c(C(=O)N(CC3CC3)[C@@H]3CCc4nc(C(F)(F)F)ccc43)cc2c2cnccc12 [Example 238, (R)-5-amino-8-chloro-N-(cyclopropylmethyl)-N-(2-(trifluoromethyl)-6,7-dihydro-5H-cyclopenta[b]pyridin-5-yl)benzo[c][2,6]naphthyridin-9-carboxamide] |  | 264 nM | 14 nM
CN(C(=O)c1ccc2nc(N)c3ccncc3c2c1)[C@@H]1COc2cc(C(F)(F)F)ccc21 [Reference Compound 2, reference compound] | 0.1 | 702 nM | 25 nM
Cn1cc(N(C(=O)c2cc3c4c(c(N)nc3cc2F)COC4)C2CCc3nc(C(F)(F)F)ccc32)cn1 (centres unmarked) [Example 160, 4-amino-7-fluoro-N-(1-methyl-1H-pyrazol-4-yl)-N-(2-(trifluoromethyl)-6,7-dihydro-5H-cyclopenta[b]pyridin-5-yl)-1,3-dihydrofuro[3,4-c]quinolin-8-carboxamide] |  | 335 nM | 17 nM
Cn1cc(N(C(=O)c2cc3c4c(c(N)nc3cc2F)COC4)[C@@H]2COc3nc(C(F)(F)F)ccc32)cn1 [Example 209, (S)-4-amino-7-fluoro-N-(1-methyl-1H-pyrazol-4-yl)-N-(6-(trifluoromethyl)-2,3-dihydrofuro[2,3-b]pyridin-3-yl)-1,3-dihydrofuro[3,4-c]quinolin-8-carboxamide] |  | 279 nM | 4 nM
Nc1nc2ccc(C(=O)N(CC3CC3)[C@H]3COc4cc(C(F)(F)F)ccc43)cc2c2cnccc12 [Example 193, (R)-5-amino-N-(cyclopropylmethyl)-N-(6-(trifluoromethyl)-2,3-dihydrobenzofuran-3-yl)benzo[c][2,6]naphthyridin-9-carboxamide] |  | 9090 nM | 452 nM
Cn1cc(N(C(=O)c2cc3c4c(c(N)nc3cc2F)COC4)[C@@H]2COc3cc(C(F)(F)F)ccc32)cn1 [Example 201, (S)-4-amino-7-fluoro-N-(1-methyl-1H-pyrazol-4-yl)-N-(6-(trifluoromethyl)-2,3-dihydrobenzofuran-3-yl)-1,3-dihydrofuro[3,4-c]quinolin-8-carboxamide] |  | 78 nM | 2 nM
